From patent US6706663B2, “Herbicidal 3-heterocyclic substituted benzisothiazole and benzisoxazole compounds” (Wyeth, priority 2000, dated 2004)

What was measured:
[1] = system: ABUTH (Abutilon theophrasti); assay: Postemergence herbicidal evaluation; type: in vivo, Medic.
Method in brief: (§1)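 Seedlings grown for about two weeks were sprayed postemergence and then kept under standard greenhouse care. Injury was rated visually 4–5 weeks after treatment on a 0–9 scale against untreated controls, and ratings from repeat tests were averaged.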

GALAP (Galium aparine) [2] = assay: Postemergence herbicidal evaluation; type: in vivo
Method in brief: as §1

[3] = system: IPOHE (Ipomoea hederacea); assay: Postemergence herbicidal evaluation; type: in vivo, (L.) Jacq.
Method in brief: as §1

SETVI (Setaria viridis) [4] = assay: Postemergence herbicidal evaluation; type: in vivo, (L.) Beau
Method in brief: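 First, seedlings are raised in flats for about two weeks. Next, compound dispersed in 50/50 acetone/water with 0.5% TWEEN 20 is sprayed at 40 psi to deliver about 0.0040–1.000 kg/ha. Plants are then maintained in the greenhouse and rated 0-9 after four to five weeks.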

[5] = system: GLXMAW (Soybean, Williams); assay: Postemergence herbicidal evaluation; type: in vivo, Glycine max, (L.) Merr. cv Williams
Method in brief: as §1

[6] = system: TRZAWR (Wheat, Winter, cv Riband); assay: Postemergence herbicidal evaluation; type: in vivo, Triticum aestivum
Method in brief: as §1

[7] = system: ABUTH (Abutilon theophrasti); assay: Preemergence herbicidal evaluation; type: in vivo, Medic.; details: preemergence, rated 4-5 weeks after treatment
[8] = system: AMBEL (Ambrosia artemisifolia); assay: Preemergence herbicidal evaluation; type: in vivo, L.; details: preemergence, rated 4-5 weeks after treatment
Method in brief: (§2)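 Test compound is applied in aqueous acetone to cups just after seeding. Cups are watered and maintained on greenhouse benches. Each cup is scored 0–9 by eye relative to a control after four to five weeks.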

[9] = system: CASOB (Cassia obtusifolia); assay: Preemergence herbicidal evaluation; type: in vivo, L.; details: preemergence, rated 4-5 weeks after treatment
Method in brief: as §2

[10] = system: CHEAL (Chenopodium album); assay: Preemergence herbicidal evaluation; type: in vivo, L.; details: preemergence, rated 4-5 weeks after treatment
Method in brief: as §2

GALAP (Galium aparine) [11] = assay: Preemergence herbicidal evaluation; type: in vivo; details: preemergence, rated 4-5 weeks after treatment
Method in brief: as §2

[12] = system: ECHCG (Echinochloa crus-galli); assay: Preemergence herbicidal evaluation; type: in vivo, (L.) Beau; details: preemergence, rated 4-5 weeks after treatment
Method in brief: as §2

SETVI (Setaria viridis) [13] = assay: Preemergence herbicidal evaluation; type: in vivo, (L.) Beau; details: preemergence, rated 4-5 weeks after treatment
Method in brief: as §2

ZEAMX (Corn, Field) = assay: Preemergence herbicidal evaluation; type: in vivo, Zea mays, L.; details: preemergence, rated 4-5 weeks after treatment
[14] = system: CYPSE (Cyperus serotinus); assay: Flooded paddy, preemergence weed control; type: in vivo, Rottb.; details: rated 3-4 weeks after treatment, 0-9 rating scale
Method in brief: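 Herbicidal effect was scored visually on a 0–9 scale against an untreated control 3–4 weeks after treatment. Compounds were applied preemergence as 50/50 v/v aqueous/acetone mixtures into flood water (1.5–3 cm deep over silt loam), at roughly 0.0080 to 0.1250 kg/ha active ingredient.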

[15] = system: MOOVA (Monochoria vaginalis); assay: Flooded paddy, preemergence weed control; type: in vivo, Presl.; details: rated 3-4 weeks after treatment, 0-9 rating scale
Method in brief: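 Under paddy conditions, seeds or vegetative propagules go into the top 0.5 cm of silt loam; the soil is then flooded to 1.5–3 cm and kept so. Treated pots stay in a greenhouse; response is rated 0-9 visually versus control.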

ORYSAT (Rice, Tebonnet) = assay: Flooded paddy, post-transplant rice tolerance; type: in vivo, Oryza sativa, (L.) Tebonnet; details: flooded paddy, post-transplant rice, rated 3-4 weeks after treatment, 0-9 rating scale
Method in brief: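 Seedlings aged ten days are transplanted in pairs into undrained pots of silt loam, which are then flooded to a depth of 1.5 to 3 cm. After herbicide application the pots are kept in a greenhouse with the flood maintained. Plants are rated 0-9 by visual comparison with controls.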

Cc1cccnc1-c1nsc2ccc(-n3c(=O)cc(C(F)(F)F)n(C)c3=O)cc12 [Compound 19, 1-methyl-3-[3-(3-methyl-2-pyridyl)-1,2-benzisothiazol-5-yl]-6-(trifluoromethyl)uracil]
Postemergence herbicidal rating, ABUTH ([1]; rate 0.0320 kg/ha): 9.0 | Postemergence herbicidal rating, ABUTH ([1]; rate 0.0620 kg/ha): 9.0 | Postemergence herbicidal rating, GALAP (GALAP (Galium aparine) [2]; rate 0.0320 kg/ha): 3.5 | Postemergence herbicidal rating, GALAP (GALAP (Galium aparine) [2]; rate 0.0620 kg/ha): 6.0 | Postemergence herbicidal rating, IPOHE ([3]; rate 0.0320 kg/ha): 8.0 | Postemergence herbicidal rating, IPOHE ([3]; rate 0.0620 kg/ha): 9.0 | Postemergence herbicidal rating, SETVI (SETVI (Setaria viridis) [4]; rate 0.0320 kg/ha): 4.0 | Postemergence herbicidal rating, SETVI (SETVI (Setaria viridis) [4]; rate 0.0620 kg/ha): 6.5 | Postemergence herbicidal rating, GLXMAW ([5]; rate 0.0320 kg/ha): 8.3 | Postemergence herbicidal rating, GLXMAW ([5]; rate 0.0620 kg/ha): 8.0 | Postemergence herbicidal rating, TRZAWR ([6]; rate 0.0320 kg/ha): 4.0 | Postemergence herbicidal rating, TRZAWR ([6]; rate 0.0620 kg/ha): 4.3 | ABUTH preemergence herbicidal rating ([7]; Rate 0.0620 kg/ha): 7.7 | ABUTH preemergence herbicidal rating ([7]; Rate 0.1250 kg/ha): 9.0 | ABUTH preemergence herbicidal rating ([7]; Rate 0.2500 kg/ha): 9.0 | AMBEL preemergence herbicidal rating ([8]; Rate 0.0620 kg/ha): 6.7 | AMBEL preemergence herbicidal rating ([8]; Rate 0.1250 kg/ha): 9.0 | AMBEL preemergence herbicidal rating ([8]; Rate 0.2500 kg/ha): 9.0 | CASOB preemergence herbicidal rating ([9]; Rate 0.0620 kg/ha): 4.7 | CASOB preemergence herbicidal rating ([9]; Rate 0.1250 kg/ha): 5.7 | CASOB preemergence herbicidal rating ([9]; Rate 0.2500 kg/ha): 8.3 | CHEAL preemergence herbicidal rating ([10]; Rate 0.0620 kg/ha): 9.0 | CHEAL preemergence herbicidal rating ([10]; Rate 0.1250 kg/ha): 9.0 | CHEAL preemergence herbicidal rating ([10]; Rate 0.2500 kg/ha): 9.0 | GALAP preemergence herbicidal rating (GALAP (Galium aparine) [11]; Rate 0.0620 kg/ha): 0.5 | GALAP preemergence herbicidal rating (GALAP (Galium aparine) [11]; Rate 0.1250 kg/ha): 6.0 | GALAP preemergence herbicidal rating (GALAP (Galium aparine) [11]; Rate 0.2500 kg/ha): 9.0 | ECHCG preemergence herbicidal rating ([12]; Rate 0.0620 kg/ha): 9.0 | ECHCG preemergence herbicidal rating ([12]; Rate 0.1250 kg/ha): 9.0 | ECHCG preemergence herbicidal rating ([12]; Rate 0.2500 kg/ha): 9.0 | SETVI preemergence herbicidal rating (SETVI (Setaria viridis) [13]; Rate 0.0620 kg/ha): 9.0 | SETVI preemergence herbicidal rating (SETVI (Setaria viridis) [13]; Rate 0.1250 kg/ha): 9.0 | SETVI preemergence herbicidal rating (SETVI (Setaria viridis) [13]; Rate 0.2500 kg/ha): 9.0 | ZEAMX preemergence herbicidal rating (ZEAMX (Corn, Field); Rate 0.0620 kg/ha): 7.0 | ZEAMX preemergence herbicidal rating (ZEAMX (Corn, Field); Rate 0.1250 kg/ha): 7.0 | ZEAMX preemergence herbicidal rating (ZEAMX (Corn, Field); Rate 0.2500 kg/ha): 7.7 | herbicidal rating, CYPSE ([14]; rate 0.0080 kg/ha): 0.0 | herbicidal rating, CYPSE ([14]; rate 0.0320 kg/ha): 0.0 | herbicidal rating, CYPSE ([14]; rate 0.1250 kg/ha): 6.5 | herbicidal rating, MOOVA ([15]; rate 0.0080 kg/ha): 4.0 | herbicidal rating, MOOVA ([15]; rate 0.0320 kg/ha): 9.0 | herbicidal rating, MOOVA ([15]; rate 0.1250 kg/ha): 9.0 | herbicidal rating, ORYSAT (rice tolerance) (ORYSAT (Rice, Tebonnet); rate 0.0080 kg/ha): 2.0 | herbicidal rating, ORYSAT (rice tolerance) (ORYSAT (Rice, Tebonnet); rate 0.0320 kg/ha): 6.5 | herbicidal rating, ORYSAT (rice tolerance) (ORYSAT (Rice, Tebonnet); rate 0.1250 kg/ha): 8.0

Cc1ccc(-c2nsc3ccc(N4C(=O)C5=C(CCCC5)C4=O)cc23)s1 [Compound 20, N-[3-(5-methyl-2-thienyl)-1,2-benzisothiazol-5-yl]-1-cyclohexene-1,2-dicarboximide]
Postemergence herbicidal rating, ABUTH ([1]; rate 0.0320 kg/ha): 7.0 | Postemergence herbicidal rating, ABUTH ([1]; rate 0.0620 kg/ha): 9.0 | Postemergence herbicidal rating, ABUTH ([1]; rate 0.1250 kg/ha): 9.0 | Postemergence herbicidal rating, GALAP (GALAP (Galium aparine) [2]; rate 0.0320 kg/ha): 1.0 | Postemergence herbicidal rating, GALAP (GALAP (Galium aparine) [2]; rate 0.0620 kg/ha): 1.0 | Postemergence herbicidal rating, GALAP (GALAP (Galium aparine) [2]; rate 0.1250 kg/ha): 1.0 | Postemergence herbicidal rating, IPOHE ([3]; rate 0.0320 kg/ha): 6.0 | Postemergence herbicidal rating, IPOHE ([3]; rate 0.0620 kg/ha): 9.0 | Postemergence herbicidal rating, IPOHE ([3]; rate 0.1250 kg/ha): 9.0 | Postemergence herbicidal rating, SETVI (SETVI (Setaria viridis) [4]; rate 0.0320 kg/ha): 2.0 | Postemergence herbicidal rating, SETVI (SETVI (Setaria viridis) [4]; rate 0.0620 kg/ha): 2.0 | Postemergence herbicidal rating, SETVI (SETVI (Setaria viridis) [4]; rate 0.1250 kg/ha): 2.0 | Postemergence herbicidal rating, GLXMAW ([5]; rate 0.0320 kg/ha): 5.5 | Postemergence herbicidal rating, GLXMAW ([5]; rate 0.0620 kg/ha): 5.5 | Postemergence herbicidal rating, GLXMAW ([5]; rate 0.1250 kg/ha): 5.5 | Postemergence herbicidal rating, TRZAWR ([6]; rate 0.0320 kg/ha): 3.5 | Postemergence herbicidal rating, TRZAWR ([6]; rate 0.0620 kg/ha): 4.0 | Postemergence herbicidal rating, TRZAWR ([6]; rate 0.1250 kg/ha): 4.5 | ABUTH preemergence herbicidal rating ([7]; Rate 0.0620 kg/ha): 1.0 | ABUTH preemergence herbicidal rating ([7]; Rate 0.1250 kg/ha): 2.0 | ABUTH preemergence herbicidal rating ([7]; Rate 0.2500 kg/ha): 4.0 | AMBEL preemergence herbicidal rating ([8]; Rate 0.0620 kg/ha): 0.0 | AMBEL preemergence herbicidal rating ([8]; Rate 0.1250 kg/ha): 1.0 | AMBEL preemergence herbicidal rating ([8]; Rate 0.2500 kg/ha): 2.0 | CASOB preemergence herbicidal rating ([9]; Rate 0.0620 kg/ha): 0.0 | CASOB preemergence herbicidal rating ([9]; Rate 0.1250 kg/ha): 0.0 | CASOB preemergence herbicidal rating ([9]; Rate 0.2500 kg/ha): 2.0 | CHEAL preemergence herbicidal rating ([10]; Rate 0.0620 kg/ha): 0.0 | CHEAL preemergence herbicidal rating ([10]; Rate 0.1250 kg/ha): 2.0 | CHEAL preemergence herbicidal rating ([10]; Rate 0.2500 kg/ha): 3.0 | GALAP preemergence herbicidal rating (GALAP (Galium aparine) [11]; Rate 0.0620 kg/ha): 0.0 | GALAP preemergence herbicidal rating (GALAP (Galium aparine) [11]; Rate 0.1250 kg/ha): 0.0 | GALAP preemergence herbicidal rating (GALAP (Galium aparine) [11]; Rate 0.2500 kg/ha): 3.0 | ECHCG preemergence herbicidal rating ([12]; Rate 0.0620 kg/ha): 0.0 | ECHCG preemergence herbicidal rating ([12]; Rate 0.1250 kg/ha): 0.0 | ECHCG preemergence herbicidal rating ([12]; Rate 0.2500 kg/ha): 0.0 | SETVI preemergence herbicidal rating (SETVI (Setaria viridis) [13]; Rate 0.0620 kg/ha): 0.0 | SETVI preemergence herbicidal rating (SETVI (Setaria viridis) [13]; Rate 0.1250 kg/ha): 0.0 | SETVI preemergence herbicidal rating (SETVI (Setaria viridis) [13]; Rate 0.2500 kg/ha): 0.0 | ZEAMX preemergence herbicidal rating (ZEAMX (Corn, Field); Rate 0.0620 kg/ha): 0.0 | ZEAMX preemergence herbicidal rating (ZEAMX (Corn, Field); Rate 0.1250 kg/ha): 0.0 | ZEAMX preemergence herbicidal rating (ZEAMX (Corn, Field); Rate 0.2500 kg/ha): 0.0 | herbicidal rating, CYPSE ([14]; rate 0.0320 kg/ha): 4.0 | herbicidal rating, CYPSE ([14]; rate 0.1250 kg/ha): 7.0 | herbicidal rating, MOOVA ([15]; rate 0.0320 kg/ha): 9.0 | herbicidal rating, MOOVA ([15]; rate 0.1250 kg/ha): 9.0 | herbicidal rating, ORYSAT (rice tolerance) (ORYSAT (Rice, Tebonnet); rate 0.0320 kg/ha): 2.0 | herbicidal rating, ORYSAT (rice tolerance) (ORYSAT (Rice, Tebonnet); rate 0.1250 kg/ha): 2.0
